Experimental findings from US20240383882A1 (Ecstasy LLC, priority 2020, published 2024) are described below.

Molecules are shown by their SMILES.

The subject of the first assay is male C57BL/6 mice. The assay can be described thus: 55° C. warm-water tail-flick test (antinociception). The assay is classed as in vivo. The conditions noted are these: Mus musculus, sc, 0.5 h, compounds of Table I; s.c.; 30 min; 55° C. water; configuration tested as in Table II; read-out: ED50 (mg/kg) at 30 min on C57BL/6 mice in Warm-water Tail-flick Test. In outline:
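Subcutaneous dosing, then tail immersion in 55° C water at 30–120 min; latency normalized as 100×(test−control)/(20−control), using a 20 s cutoff, after excluding mice not responding within 2 s at baseline. Values expressed as ED50 (mg/kg).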
In general terms: Hot-plate and tail-flick tests time the reaction to a heat stimulus.
Regarding `CCOCC1(CCn2c(=O)[nH]c3cc(F)c(F)cc32)CCN(C(C)(C)c2ccc(C)nc2)C1` (single isomer, unassigned) [Compound 99], the ED50 is no more than 30 mg/kg.

Staying with this assay, now noted: Mus musculus, sc, 0.5 h, compounds of Table III; s.c.; 30 min; 55° C. water; configuration tested as in Table IV; read-out: ED50 (mg/kg) at 30 min on C57BL/6 mice in Warm-water Tail-flick Test (same as Table II).
As to `CCOC[C@]1(CCc2ccccc2)CCN(C(C)(C)c2ccc(Br)cc2)C1` [Compound 5], the ED50 is no more than 30 mg/kg.

The assay is the same for the next values; noted with them: Mus musculus; half maximal effective dose in mice; using one of: warm water tail-flick test, spared nerve injury, chronic constriction injury, or Complete Freund's adjuvant induced inflammatory pain (not stated which per compound); read-out: Biological Activity (ED50).
For `CC(O)[C@@]1(CCc2ccc(C#N)cc2)CCN(C(c2ccc(F)cc2)c2cccnc2)C1` (single isomer, unassigned) [Compound 58], the ED50 is greater than 50 mg/kg. Turning to `COc1cccc(C(C)(C)N2CC[C@](CO)(CCc3ccc(C#N)cc3)C2)c1` [Compound 142, (R)-4-(2-(3-(hydroxymethyl)-1-(2-(3-methoxyphenyl)propan-2-yl)pyrrolidin-3-yl)ethyl) benzonitrile], the ED50 is greater than 50 mg/kg. `CC(C)(c1ccc(F)cn1)N1CC[C@@](CO)(CCc2ccc(C#N)cc2)C1` [Compound 226, (S)-4-(2-(1-(2-(5-fluoropyridin-2-yl)propan-2-yl)-3-(hydroxymethyl)pyrrolidin-3-yl)ethyl) benzonitrile]: the ED50 is greater than 50 mg/kg. As for `CC(C)(c1ccc(Cl)cc1)N1CC[C@@](CCc2ccc(S(C)(=O)=O)cc2)(COCc2ccccc2)C1` [Compound 37, (R)-3-((benzyloxy)methyl)-1-(2-(4-chlorophenyl)propan-2-yl)-3-(4-(methylsulfonyl)phenethyl) pyrrolidine], the ED50 is greater than 50 mg/kg. As to `Cc1ccc(C(C)(C)N2CC[C@](CO)(CCc3ccc(F)cc3)C2)cn1` [Compound 15, (R)-(3-(4-fluorophenethyl)-1-(2-(6-methylpyridin-3-yl)propan-2-yl)pyrrolidin-3-yl)methanol], the ED50 was no more than 30 mg/kg. As for `CC(C)(c1ccccn1)N1CC[C@@](/C=C/c2ccc(C(F)(F)F)o2)(COCc2ccccc2)C1` [Compound 188, (S,E)-2-(2-(3-((benzyloxy)methyl)-3-(2-(5-(trifluoromethyl)furan-2-yl)vinyl)pyrrolidin-1-yl)propan-2-yl)pyridine], the ED50 is greater than 50 mg/kg. For `CC(C)(c1ccccn1)N1CC[C@@](CCc2ccc(C#N)c(F)c2)(C(=O)C(F)(F)F)C1` [Compound 105, (R)-2-fluoro-4-(2-(1-(2-(pyridin-2-yl)propan-2-yl)-3-(2,2,2-trifluoroacetyl)pyrrolidin-3-yl)ethyl) benzonitrile], the ED50 is greater than 50 mg/kg. With `CC(C)(c1ccc(Cl)cc1)N1CC[C@@](CO)(CCc2ccc(S(C)(=O)=O)cc2)C1` [Compound 44], the ED50 was greater than 50 mg/kg.

As to `CC(C)(c1ccccn1)N1CC[C@@](CCc2ccc(C#N)s2)(C(=O)C(F)(F)F)C1` [Compound 154, (R)-5-(2-(1-(2-(pyridin-2-yl)propan-2-yl)-3-(2,2,2-trifluoroacetyl)pyrrolidin-3-yl)ethyl)thiophene-2-carbonitrile], the ED50 was greater than 50 mg/kg.

As for `CC(C)(c1ccccn1)N1CC[C@@](CCc2ccc(C#N)cc2)(CS(C)(=O)=O)C1` [Compound 162, (R)-4-(2-(3-((methylsulfonyl)methyl)-1-(2-(pyridin-2-yl)propan-2-yl)pyrrolidin-3-yl)ethyl) benzonitrile], the ED50 is greater than 50 mg/kg. For `Cc1ccc(CN2CC[C@@](CCc3ccc(C#N)cc3)(C3OCC3(C)C)C2)cn1` (single isomer, unassigned) [Compound 194, 4-(2-((R)-3-((R or S)-3,3-dimethyloxetan-2-yl)-1-((6-methylpyridin-3-yl)methyl)pyrrolidin-3-yl)ethyl) benzonitrile], the ED50 was no more than 30 mg/kg. As to `CSc1ccc(C(C)(C)N2CC[C@@](CCc3ccc(F)cc3)(COCc3ccccc3)C2)cc1` [Compound 40, (R)-3-((benzyloxy)methyl)-3-(4-fluorophenethyl)-1-(2-(4-(methylthio)phenyl)propan-2-yl)pyrrolidine], the ED50 was greater than 50 mg/kg. Still for that read-out and setting: next, `CCOC(C(F)(F)F)(C(F)(F)F)[C@]1(CCc2ccc(C#N)cc2)CCN(C(C)(C)c2ccccn2)C1` [Compound 137, (R)-4-(2-(3-(2-ethoxy-1,1,1,3,3,3-hexafluoropropan-2-yl)-1-(2-(pyridin-2-yl)propan-2-yl)pyrrolidin-3-yl)ethyl) benzonitrile]: greater than 50 mg/kg; `CC(C)(c1ccc(C(F)(F)F)nc1)N1CC[C@@](CCc2ccc(C#N)cc2)(COCC(F)(F)F)C1` [Compound 28, (R)-4-(2-(3-((2,2,2-trifluoroethoxy)methyl)-1-(2-(6-(trifluoromethyl)pyridin-3-yl)propan-2-yl)pyrrolidin-3-yl)ethyl) benzonitrile]: greater than 50 mg/kg. As to `CC(C)(c1ccccn1)N1CC[C@@](CCc2ccc(C#N)c(F)c2)(COCc2ccccc2)C1` [Compound 112, (R)-4-(2-(3-((benzyloxy)methyl)-1-(2-(pyridin-2-yl)propan-2-yl)pyrrolidin-3-yl)ethyl)-2-fluorobenzonitrile], the ED50 is greater than 50 mg/kg. Turning to `CC(C)(c1ccc(S(C)(=O)=O)cc1)N1CC[C@](CO)(CCc2ccc(F)cc2)C1` [Compound 36, (R)-(3-(4-fluorophenethyl)-1-(2-(4-(methylsulfonyl)phenyl)propan-2-yl)pyrrolidin-3-yl)methanol], the ED50 was greater than 50 mg/kg. In the case of `CCOC(C(F)(F)F)(C(F)(F)F)[C@]1(/C=C/c2ccc3nonc3c2)CCN(C(C)(C)c2ccc(C)nc2)C1` [Compound 186, (S,E)-5-(2-(3-(2-ethoxy-1,1,1,3,3,3-hexafluoropropan-2-yl)-1-(2-(6-methylpyridin-3-yl)propan-2-yl)pyrrolidin-3-yl)vinyl)benzo[c] [1,2,5]oxadiazole], the ED50 was no more than 30 mg/kg. `CC(C)(c1ccccn1)N1CC[C@](COCc2ccc(C#N)cc2)(C2CCCO2)C1` (single isomer, unassigned) [Compound 74]: the ED50 is greater than 50 mg/kg. On to `CC(C)(c1ccccn1)N1CC[C@@](CCc2ccc3nonc3c2)(C(O)C(F)(F)F)C1` (single isomer, unassigned) [Compound 176, (R or S)-1-((R)-3-(2-(benzo[c][1,2,5]oxadiazol-5-yl)ethyl)-1-(2-(pyridin-2-yl)propan-2-yl)pyrrolidin-3-yl)-2,2,2-trifluoroethan-1-ol], for which the ED50 is greater than 50 mg/kg.

For the compound `CC1(C)COC1[C@]1(CCc2ccc(C#N)cc2)CCN(Cc2cccnc2)C1` (single isomer, unassigned) [Compound 193, 4-(2-((R)-3-((R or S)-3,3-dimethyloxetan-2-yl)-1-(pyridin-3-ylmethyl)pyrrolidin-3-yl)ethyl) benzonitrile], the ED50 is no more than 30 mg/kg.

Regarding `CC(C)(c1ccccn1)N1CC[C@](CO)(CCc2ccc(F)c(F)c2)C1` [Compound 146, (R)-(3-(3,4-difluorophenethyl)-1-(2-(pyridin-2-yl)propan-2-yl)pyrrolidin-3-yl)methanol], the ED50 was greater than 50 mg/kg. With `Cc1cccc(C(C)(C)N2CC[C@](CO)(CCc3ccc(C#N)cc3)C2)n1` [Compound 144, (R)-4-(2-(3-(hydroxymethyl)-1-(2-(6-methylpyridin-2-yl)propan-2-yl)pyrrolidin-3-yl)ethyl) benzonitrile], the ED50 was greater than 50 mg/kg. On the same count and under the same terms, in the case of `CC(C)(c1ccccn1)N1CC[C@@](CCc2cccc(C#N)c2)(C(O)C(F)(F)F)C1` (single isomer, unassigned) [Compound 134, 3-(2-((R)-1-(2-(pyridin-2-yl)propan-2-yl)-3-((R or S)-2,2,2-trifluoro-1-hydroxyethyl)pyrrolidin-3-yl)ethyl) benzonitrile] it was greater than 50 mg/kg; in that of `CCOC(C(F)(F)F)(C(F)(F)F)[C@]1(CCc2ccc(C#N)cc2)CCN(C(C)(C)c2ccc(C)nc2)C1` [Compound 6, (R)-4-(2-(3-(2-ethoxy-1,1,1,3,3,3-hexafluoropropan-2-yl)-1-(2-(6-methylpyridin-3-yl)propan-2-yl)pyrrolidin-3-yl)ethyl) benzonitrile], no more than 30 mg/kg; in that of `CCOC(C(F)(F)F)[C@]1(CCc2ccc(C#N)cc2)CCN(C(C)(C)c2ccccn2)C1` (single isomer, unassigned) [Compound 52], greater than 50 mg/kg. `CCC(C)(c1ccc(S(C)(=O)=O)cc1)N1CC[C@@](CCc2ccc(F)cc2)(COCc2ccccc2)C1` (stereo partly drawn) [Compound 34, (3R)-3-((benzyloxy)methyl)-3-(4-fluorophenethyl)-1-(2-(4-(methylsulfonyl)phenyl)butan-2-yl)pyrrolidine]: the ED50 was greater than 50 mg/kg. As for `CC(C)(c1ccccn1)N1CC[C@](C#N)(CCc2ccc(C#N)cc2)C1` [Compound 179, (R)-3-(4-cyanophenethyl)-1-(2-(pyridin-2-yl)propan-2-yl)pyrrolidine-3-carbonitrile], the ED50 is greater than 50 mg/kg. Regarding `CC(C)(c1ccccn1)N1CC[C@@](CCc2ccc(C#N)s2)(C(O)C(F)(F)F)C1` (single isomer, unassigned) [Compound 152, 5-(2-((R)-1-(2-(pyridin-2-yl)propan-2-yl)-3-((R or S)-2,2,2-trifluoro-1-hydroxyethyl)pyrrolidin-3-yl)ethyl)thiophene-2-carbonitrile], the ED50 is no more than 30 mg/kg. `CCOC[C@]1(CCc2ccc(F)cc2)CCN(Cc2ccc(OC)nc2)C1` [Compound 1, (R)-5-((3-(ethoxymethyl)-3-(4-fluorophenethyl)pyrrolidin-1-yl)methyl)-2-methoxypyridine]: the ED50 is greater than 50 mg/kg.

The assay is the same for the next values; noted with them: half maximal effective dose in mice; using one of: warm water tail-flick test, spared nerve injury, chronic constriction injury, or Complete Freund's adjuvant induced inflammatory pain (not stated which per compound).
Turning to `CC(C)(c1ccccn1)N1CC[C@@](CCc2ccc(F)c(F)c2)(C(O)C(F)(F)F)C1` (single isomer, unassigned) [Compound 151, (R or S)-1-((R)-3-(3,4-difluorophenethyl)-1-(2-(pyridin-2-yl)propan-2-yl)pyrrolidin-3-yl)-2,2,2-trifluoroethan-1-ol], the “Biological Activity (ED50)” value is recorded as “+ (+ indicates ED 50>50 mg/kg)”.
